Calls of active or inactive are those of the source.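 How the source made its calls: active means fitted curve crossing a set activation limit at or below the highest valid dose tested; inconclusive means flat fit at 30 to 70% activation, or poor fit; inactive means the rest, including signal decreases.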
test system: D54 ERlucT glycosylation luciferase reporter, luminescence, 24 h; assay: N-linked glycosylation inhibitors, luciferase reporter, dose response, D54 ERlucT cells, luminescence, cherry-picks (AID 624491);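 further: signal gain reflects blocked N-linked glycosylation of a luciferase reporter; actives raise luciferase signal so AC26 marks activators of the reporter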

Row | SMILES | AC26
1 | CC(=O)/C=C/c1ccccc1Oc1c(F)c(F)nc(F)c1F | 183 nM
2 | COc1ccc(C(=O)c2ccc(OC)c(N)c2)cc1N | 143 nM
3 | C/C(=N\NC(=O)c1c(Cl)c(C)nn1C)c1ccc(NC(=O)C2CCC2)cc1 | 3.55 nM
4 | Cc1cnc(C(=O)Nc2ccc(OC(F)(F)F)cc2)cn1 | 9150 nM
5 | COc1cccc(OCC(O)CN2CCN(CCN3C(=O)c4cccc5cccc(c45)C3=O)CC2)c1 (stereo not drawn) | 4250 nM
6 | O=C(N/N=C/c1ccc(Cl)cc1)c1sccc1OCc1ccc(F)cc1 | 83.6 nM
7 | CN1C(=O)c2cccc3c(S(=O)(=O)Nc4ccccn4)ccc1c23 | 5030 nM
8 | COc1ccc(S(=O)(=O)N2CCCCC2)cc1NC(=O)c1[nH]c(C)c(C(C)=O)c1C | 1630 nM
9 | COc1cc(C2c3[nH]c4ccccc4c3CC3COC(=O)N32)cc(OC)c1O (stereo not drawn) | 780 nM
10 | COc1cc(C(=O)NCCOc2cc(C)cc(C)c2)cc(OC)c1OC | 2370 nM
11 | CSC1=NC(C(Cl)(Cl)Cl)N=C(c2ccccc2)N1 (stereo not drawn) | 1470 nM
12 | CC(=O)Nc1cccc(-c2ccnc3c2CC(C)(C(=O)NCCc2ccccc2)O3)c1 (stereo not drawn) | 1370 nM
13 | Cc1ccc(-n2nc(C)c(NC(=O)CCl)c2C)cc1 | 2210 nM
14 | CCN(CC)c1ccc(/C=N/n2nnnc2N)c(O)c1 | 3410 nM
15 | CN(C)/N=C/C=C1\CCC/C(=C\c2ccc(F)c(F)c2)C1=O | 966 nM
16 | COc1ccc(Nc2nc3cc(-c4sccc4C)sc3c(=O)n2C)cc1OC | 477 nM
17 | CC(C)Sc1ccccc1C(=O)Nc1ccc2c(c1)n(C)c(=O)n2C | 4830 nM
18 | Cc1ccc2c(c1)C(=O)N1[C@H]3c4cc(Cl)ccc4OC[C@@H]3[C@H](c3ccccc3)[C@]1(C)C(=O)N2 | 1260 nM
19 | COc1ccc(C2=NOC(C(=O)NCc3ccco3)C2)cc1 (stereo not drawn) | 2400 nM
20 | Cc1ccc(-c2nn3c(C)nnc3c3ccccc23)cc1S(=O)(=O)NC(C)(C)CO | 826 nM
21 | COc1ccc(CC(=O)N(Cc2ccccc2)c2ccc(C)cc2)cc1OC | 716 nM
22 | Cc1ccc(CCC(=O)Nc2ncc(Cc3cc(Cl)ccc3Cl)s2)o1 | 476 nM

Row | SMILES | AC26
23 | COc1ccc(Nc2nc(N)c(C(=O)c3ccc(OC)cc3)s2)cc1 | 483 nM
24 | O=C(NCc1ccco1)C1CC(c2ccc(C(F)(F)F)cc2)=NO1 (stereo not drawn) | 9730 nM
25 | COc1cc(-c2noc(C)c2/C=C/c2ccc(N)cc2)cc(OC)c1OC | 467 nM
26 | COCCNC(=S)N1CCc2cc(OC)c(OC)cc2C1c1cccs1 (stereo not drawn) | 455 nM
27 | O=C(N/N=C\c1ccc(CNS(=O)(=O)c2ccc(Cl)cc2)o1)C(=O)Nc1ccc(Oc2ccccc2)cc1 | 4890 nM
28 | COc1cc(OC)cc(C(=O)NCC(=O)Nc2ccc(-c3ccccc3)cc2)c1 | 8830 nM
29 | Cc1nnc(NC(=O)CSc2nc(C(C)C)nc3ccccc23)s1 | 971 nM
30 | Oc1ccc(Nc2nc(N3CCCC3)c3ccccc3n2)cc1 | 335 nM
31 | O=C1Cc2c([nH]c3ccc(Br)cc23)-c2ccccc2N1 | 351 nM
32 | CCOc1ccc(Nc2nc(N(C)c3ccccc3)nc(N)c2[N+](=O)[O-])cc1 | 92.1 nM
33 | O=C1CCCC2=C1C(c1ccco1)Nc1ccc(C(=O)c3ccccc3)cc1N2 (stereo not drawn) | 16500 nM
34 | CCN1Cc2c(/C=C/c3ccccc3)nc3ccc(OC)cc3c2N(c2cccc(Cl)c2)C1 | 14300 nM
35 | Oc1ccc(Nc2nc(NCC3CCCO3)c3ccccc3n2)cc1 (stereo not drawn) | 1110 nM
36 | CC(CCc1ccco1)NC(=O)CCc1nnc2ccc(NCc3ccc(Cl)cc3)nn12 (stereo not drawn) | 1260 nM
37 | COc1ccc(Nc2nc(N(C)c3ccccc3)nc(N)c2[N+](=O)[O-])cc1 | 271 nM
38 | COc1ccc(N/C=C/C(=O)c2cc(OC)c(OC)c(OC)c2)cc1 | 28.7 nM
39 | COc1ccc(C(=O)/C=C\c2ccc(NC(=O)c3cccs3)cc2)cc1 | 2000 nM
40 | Cc1c(C(=O)OCC(C)C)[nH]c2c1C(=O)CC(c1cccs1)C2 (stereo not drawn) | 1170 nM
41 | O=C(NCCCN1CCOCC1)c1cc(-c2ccccc2)on1 | 5780 nM
42 | NS(=O)(=O)c1cc(C(=O)NCCOc2ccccc2)c(Cl)cc1Cl | 5620 nM
43 | O=C(CN1CCC(O)(c2cccc(F)c2)CC1)NCCc1c[nH]c2ccccc12 | 1150 nM
44 | C#CCCOC(=O)N1C2=NC(C(=O)OC)=C(C(=O)OC)[C@@H]3N(C)c4ccccc4[C@]23C[C@H]1C(=O)OC | 479 nM

Row | SMILES | AC26
45 | CC(CCc1ccccc1)NC(=O)c1ccc(NC(=O)c2ccccc2)cc1 (stereo not drawn) | 4540 nM
46 | Cc1ccc2nc3c(cc(C(N)=S)c(=N)n3CCCOC(C)C)c(=O)n2c1 | 1140 nM
47 | Cc1c(C(=O)Nc2ccc3oc(-c4cccnc4)nc3c2)oc2ccccc12 | 8840 nM
48 | C[C@@]12C(=O)Nc3cc(Cl)ccc3C(=O)N1[C@H]1c3ccccc3OC[C@@H]1[C@@H]2c1ccccc1 | 397 nM
49 | N#Cc1c(N)n(CCc2ccc(F)cc2)c2nc3ccccc3nc12 | 1590 nM
50 | CC1(C(=O)NCc2ccco2)Cc2c(-c3ccc(C(N)=O)cc3)ccnc2O1 (stereo not drawn) | 1390 nM
51 | Cc1ccc2c(CC(=O)NCc3ccco3)coc2c1C | 7380 nM
52 | COc1cc(/C=N/NC(=O)c2cc(-c3cccn3C)n[nH]2)cc(OC)c1OC | 1730 nM
53 | Cc1nc(SCC(=O)Nc2ccc(F)cc2)c(C#N)c(C)c1CC(=O)c1ccc(Br)cc1 | 1660 nM
54 | OCC1OC(n2cnc3c(SCc4ccccc4)ncnc32)C(O)C1O (stereo not drawn) | 1050 nM
55 | COc1ccccc1NC1=NC(c2ccc(Cl)cc2)N=C(N)N1 (stereo not drawn) | 1370 nM
56 | Cc1cc(NC(=O)COC(=O)c2ccc(S(=O)(=O)N3CCCc4ccccc43)cc2)no1 | 665 nM
57 | COc1ccccc1N1CCN(C(=O)c2oc3ccccc3c2C)CC1 | 8000 nM
58 | COc1ccc(C(=O)c2ccc(N(C)C)cc2)c2ccccc12 | 2000 nM
59 | CN=c1sc(C(=O)Nc2cccc(Cl)c2)cc(=O)n1C | 349 nM
60 | COc1cc(C(=O)N/N=C/c2ccc3c(c2)c2ccccc2n3C)ccc1O | 4070 nM
61 | COc1ccc(S(=O)(=O)N2CCCOC2CNC(=O)C(=O)NCCc2ccco2)cc1C (stereo not drawn) | 9490 nM
62 | CCCCCC(O)C=CC1C(O)CC(O)C1CC=CCCCC(=O)O (stereo not drawn) | 7.83 nM
63 | CC1(C)Cc2c(c(N3CCOCC3)nc3snc(N)c23)CO1 | 502 nM
64 | O=C(Nc1ccccc1N1CCOCC1)c1ccc2nc[nH]c2c1 | 1130 nM
65 | CC(=O)N1CCc2c(sc(NC(=O)c3ccc4c(c3)OCCO4)c2C#N)C1 | 1950 nM
66 | C=CCN(CC=C)S(=O)(=O)c1ccc(C(=O)Nc2nc3c(s2)CCc2ccccc2-3)cc1 | 6790 nM

Row | SMILES | AC26
67 | CCC(CC)Nc1ccc(C(CC(N)=O)NC(=O)Cc2ccc(Br)cc2)cc1[N+](=O)[O-] (stereo not drawn) | 4130 nM
68 | Cc1ccc(NCCN(C)C)c2c(=O)c3cc(O)ccc3sc12 | 84.5 nM
69 | CC1(C(=O)Nc2ccc3c(c2)OCO3)Cc2c(-c3ccc4c(c3)OCO4)ccnc2O1 (stereo not drawn) | 7650 nM
70 | Cn1nc(C(F)(F)F)c(/C=N/OC(=O)c2ccccc2Cl)c1SCc1ccccc1Cl | 817 nM
71 | CCOc1ccc(/C=N/NC(=O)c2cc3c(OC)cccc3[nH]2)cc1 | 3800 nM
72 | Cc1cccc(N2CCN(C(=O)c3cc(S(=O)(=O)N4CCCC4)cn3C)CC2)c1C | 2050 nM
73 | COc1cc(/C=C/C(=O)OCC(=O)NCc2ccc(F)cc2)ccc1O | 1590 nM
74 | COc1ccc(C)cc1NC(=O)CCCNC(=O)Cn1cnc2sc(C)c(C)c2c1=O | 7090 nM
75 | COc1ccc(C2C(C(=O)Nc3cc(OC)c(OC)c(OC)c3)c3ccccc3C(=O)N2C)cc1 (stereo not drawn) | 5180 nM
76 | CCNCCNc1ccc([N+](=O)[O-])c2cccnc12 | 7750 nM
77 | Cc1cc([N+](=O)[O-])ccc1-c1ccc(/C=N/NC(=O)c2ccc(Br)o2)o1 | 4510 nM
78 | O=C1[C@@H]2Cc3c([nH]c4ccccc34)C(c3ccc([N+](=O)[O-])cc3)N2C(=O)CN1C1CC1 (stereo partly drawn) | 11500 nM
79 | O=C1CCNc2cc3ccccc3cc21 | 32.5 nM
80 | Cc1cc(=O)n2c3c(c4c(cc13)c(CN(C)C)cc(=O)n4C)OC2 | 3030 nM
81 | CCOc1ccc2c(c1)OC(c1ccc(OC)cc1)(C(F)(F)F)NC2=O (stereo not drawn) | 1610 nM
82 | C=CCN1c2ccccc2[C@]23C[C@@H](C(=O)OC)N(C(=O)c4ccc(Br)cc4)C2=NC(C(=O)OC)=C(C(=O)OC)[C@H]13 | 6060 nM
83 | c1ccc(CN2CCC(Nc3nc(-c4cccnc4)nc4ccccc34)CC2)cc1 | 6130 nM
84 | CCOC(=O)N1CCc2cc(OC)c(OC)c3c2c1cc1cc(OC)c(OC)cc13 | 11100 nM
85 | COc1cccc(-c2cnc3c(NC=O)cc(-c4cc(C)c(O)c(C)c4)cn23)c1 | 2140 nM
86 | Cn1c(C(=O)OCC(=O)NCc2ccc(F)cc2)cc2occc21 | 8970 nM
87 | Nc1nc(CN2CCN(Cc3ccccc3)CC2)nc(Nc2ccc3c(c2)OCCO3)n1 | 699 nM
88 | Cn1nc(C(=O)Nc2cccc(S(=O)(=O)N3CCCC3)c2)c2ccccc2c1=O | 666 nM

Row | SMILES | AC26
89 | CCc1ccc(C2c3[nH]c4ccccc4c3CCN2C(=O)c2ccc(=O)n(C)n2)cc1 (stereo not drawn) | 1330 nM
90 | Oc1cccc(Nc2c3ccccc3nc3ccccc23)c1 | 1440 nM
91 | CC(CC(=O)Nc1ccc2c(c1)c(=O)n(C)n2-c1cccs1)c1ccccc1 (stereo not drawn) | 6270 nM
92 | Cn1c(=O)cc(OCCCC(=O)Nc2ccc3c(c2)OCCO3)c2ccccc21 | 3060 nM
93 | COc1ccc(CCn2c(=N)c(C(=O)NCC3CCCO3)cc3c(=O)n4cccc(C)c4nc32)cc1 (stereo not drawn) | 575 nM
94 | CCC(c1nc2ccccc2c(=O)n1-c1nc2ccccc2s1)N1C(=O)c2ccccc2C1=O (stereo not drawn) | 1030 nM
95 | CN(C)c1ccc(-c2ccnc3c2CC(C)(C(=O)NCc2ccccc2)O3)cc1 (stereo not drawn) | 5530 nM
96 | COC(=O)c1ccccc1NC(=O)Cn1nnc(-c2ccc(OC)cc2)n1 | > 19500 nM (inactive)
97 | CCN(CC)CCOc1c(Br)ccc2c1sc1nc3n(c(=O)c12)CCC3 | 3070 nM
98 | O=C(/C=C/c1ccccc1)c1ccccc1 | 6780 nM
99 | OCCCN=c1cc(-c2ccccc2)oc2ccc(Cl)cc12 | 978 nM
100 | COc1ccccc1OCC(=O)NNC(=O)c1ccoc1C | 722 nM
101 | Cc1ccc(C(=O)N/C(=C/c2cccs2)C(=O)NCCc2c[nH]c3ccccc23)cc1 | 1080 nM
102 | Cc1cccn2c(=O)c3cc(C(=O)NCc4ccco4)c(=N)n(CCc4ccccc4)c3nc12 | 1170 nM
103 | COc1ccc(C(=O)CSc2nn3c(=O)c(C(C)(C)C)nnc3s2)cc1 | 3870 nM
104 | Cc1ccc2c(c1)C(=O)N1[C@H]3c4cc(Br)ccc4OC[C@@H]3[C@H](c3ccccc3)[C@]1(C)C(=O)N2 | 689 nM
105 | CC[C@H](C)[C@@H](NC(=O)O[C@@H]1C(=O)c2cc(OC)ccc2O[C@H]1c1ccc(OC)c(Br)c1)C(=O)OC | 335 nM
106 | COc1ccccc1CCNCc1ccc(OC)c(OCc2ccccc2)c1 | 994 nM
107 | Cc1cc(NC(=O)CSc2nc3c(C)cccc3cc2C#N)no1 | 3320 nM
108 | COc1cccc(-c2cc3nc(-c4ccccc4)cc(=O)n3[nH]2)c1 | 7070 nM
